Source: PMC9274755, “KDM4 inhibitor SD49-7 attenuates leukemia stem cell via KDM4A/MDM2/p21^CIP1 axis” (Theranostics, 2022)

Tests used:
KDM4A = target: T1, KDM4A (Homo sapiens, UniProt O75164); assay: SPR (Biacore T200), protein immobilized on CM5 chip; format: binding
T1 sequence (O75164 2-1064): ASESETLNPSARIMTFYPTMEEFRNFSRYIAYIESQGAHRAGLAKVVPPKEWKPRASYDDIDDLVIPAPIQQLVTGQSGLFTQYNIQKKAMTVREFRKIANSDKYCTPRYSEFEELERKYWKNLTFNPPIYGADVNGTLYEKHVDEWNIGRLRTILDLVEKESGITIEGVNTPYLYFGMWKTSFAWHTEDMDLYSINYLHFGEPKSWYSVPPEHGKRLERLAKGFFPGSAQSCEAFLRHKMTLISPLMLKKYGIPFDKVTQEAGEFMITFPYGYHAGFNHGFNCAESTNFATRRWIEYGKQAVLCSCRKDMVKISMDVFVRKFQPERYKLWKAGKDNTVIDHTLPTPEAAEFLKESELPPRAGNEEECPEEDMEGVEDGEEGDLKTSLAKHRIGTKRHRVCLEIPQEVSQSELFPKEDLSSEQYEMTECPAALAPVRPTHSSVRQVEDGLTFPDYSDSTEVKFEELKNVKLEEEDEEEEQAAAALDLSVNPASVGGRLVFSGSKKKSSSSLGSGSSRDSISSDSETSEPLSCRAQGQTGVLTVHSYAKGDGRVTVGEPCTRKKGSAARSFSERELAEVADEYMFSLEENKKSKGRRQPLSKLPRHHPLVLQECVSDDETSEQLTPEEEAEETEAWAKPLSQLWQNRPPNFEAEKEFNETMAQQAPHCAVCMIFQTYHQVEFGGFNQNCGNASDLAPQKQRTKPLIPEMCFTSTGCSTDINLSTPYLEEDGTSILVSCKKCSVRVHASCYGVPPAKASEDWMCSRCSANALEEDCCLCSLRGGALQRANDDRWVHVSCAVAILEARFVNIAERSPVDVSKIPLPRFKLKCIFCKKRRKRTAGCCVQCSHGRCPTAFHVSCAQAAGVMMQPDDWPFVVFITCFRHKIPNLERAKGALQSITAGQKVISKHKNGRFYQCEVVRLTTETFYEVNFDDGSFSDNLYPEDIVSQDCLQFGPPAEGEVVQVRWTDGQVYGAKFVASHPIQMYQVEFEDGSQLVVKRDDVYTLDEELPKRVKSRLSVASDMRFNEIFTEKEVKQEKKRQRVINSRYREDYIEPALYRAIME

KDM4C = target: T2, KDM4C (Homo sapiens, UniProt Q9H3R0); assay: as above; format: binding
T2 sequence (Q9H3R0 1-1056): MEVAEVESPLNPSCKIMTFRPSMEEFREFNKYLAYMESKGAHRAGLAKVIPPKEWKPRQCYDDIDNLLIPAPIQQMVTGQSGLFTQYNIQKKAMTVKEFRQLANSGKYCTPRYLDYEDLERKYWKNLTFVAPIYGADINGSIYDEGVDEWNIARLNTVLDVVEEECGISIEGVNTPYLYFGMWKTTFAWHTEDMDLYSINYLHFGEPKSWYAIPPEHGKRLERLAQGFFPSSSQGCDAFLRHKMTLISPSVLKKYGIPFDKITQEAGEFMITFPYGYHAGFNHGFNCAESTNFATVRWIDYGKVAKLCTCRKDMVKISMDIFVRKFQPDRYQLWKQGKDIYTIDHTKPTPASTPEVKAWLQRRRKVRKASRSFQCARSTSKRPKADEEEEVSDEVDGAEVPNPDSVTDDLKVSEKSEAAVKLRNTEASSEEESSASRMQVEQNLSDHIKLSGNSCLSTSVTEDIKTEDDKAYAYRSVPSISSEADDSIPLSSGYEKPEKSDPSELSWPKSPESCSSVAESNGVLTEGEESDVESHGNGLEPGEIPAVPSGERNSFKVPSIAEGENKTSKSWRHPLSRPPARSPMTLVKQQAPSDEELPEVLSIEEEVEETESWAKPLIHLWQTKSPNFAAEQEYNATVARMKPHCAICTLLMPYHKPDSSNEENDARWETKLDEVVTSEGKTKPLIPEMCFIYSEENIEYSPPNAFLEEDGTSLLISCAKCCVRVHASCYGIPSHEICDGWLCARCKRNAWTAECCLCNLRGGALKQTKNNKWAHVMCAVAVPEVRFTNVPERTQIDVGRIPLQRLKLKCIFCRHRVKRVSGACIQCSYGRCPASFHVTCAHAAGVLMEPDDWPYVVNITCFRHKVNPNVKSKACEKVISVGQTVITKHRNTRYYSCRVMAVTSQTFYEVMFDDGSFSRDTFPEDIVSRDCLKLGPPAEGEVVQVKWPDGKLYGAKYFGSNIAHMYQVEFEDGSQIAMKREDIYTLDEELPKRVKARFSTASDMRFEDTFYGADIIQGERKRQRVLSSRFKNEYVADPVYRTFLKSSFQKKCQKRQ

**Q.** `O=C(N/N=C/c1c(O)ccc2ccccc12)c1ccccc1O` [SD49-7] was tested. Which Kd (KDM4A) did it give?
**A.** 988 nM

**Q.** What about the Kd (KDM4C) of the same molecule?
**A.** 1060 nM

**Q.** What does the source list for `CC(C)C(=O)NC(c1ccco1)c1ccc2cccnc2c1O` (stereo not shown) [SD70]?
**A.** Kd (KDM4A): 18000 nM; Kd (KDM4C): 2590 nM
